# Laboratory results: patent US10906915B2, “Substituted pyrazoloazepin-4-ones and their use as phosphodiesterase inhibitors” (LEO Pharma A/S, priority 2016, dated 2021)
# Target: human PDE4D catalytic domain (UniProt no. Q08499) (Homo sapiens (Human), UniProt Q08499)
# Assay: PDE4 assay (TR-FRET, FAM-cAMP cleavage)
# Format: biochemical
# Details: human PDE4D catalytic domain; molar concentration giving 50% inhibition of substrate cleavage; read-out: PDE4 IC50 range
# Procedure, shortened: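 PDE4D catalytic domain ([…]) was incubated with unlabelled cAMP plus FAM-cAMP and titrated compound, stopped with binding buffer of metal-ion nanoparticles and Tb donor. AMP generation read by TR-FRET; IC50 as 50% inhibition of cleavage versus controls, reported as nM ranges.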
# Chain of human PDE4D catalytic domain (Q08499 380-740 limits assumed): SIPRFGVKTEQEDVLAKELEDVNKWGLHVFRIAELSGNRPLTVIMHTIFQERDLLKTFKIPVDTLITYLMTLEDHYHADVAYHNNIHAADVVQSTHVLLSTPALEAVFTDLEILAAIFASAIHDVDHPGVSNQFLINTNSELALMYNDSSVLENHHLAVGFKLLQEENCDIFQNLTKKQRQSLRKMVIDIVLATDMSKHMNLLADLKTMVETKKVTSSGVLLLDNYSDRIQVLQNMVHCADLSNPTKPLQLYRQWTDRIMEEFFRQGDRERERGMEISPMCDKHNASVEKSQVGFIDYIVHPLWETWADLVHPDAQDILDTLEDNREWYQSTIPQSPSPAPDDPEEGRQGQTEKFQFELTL
row,Structure (SMILES),IC50
1,"CCc1nn(C[C@@H](C)COC(=O)c2ccc(C)cc2OC)c2c1C(=O)NCC1(CCOCC1)C2 [Example 187, [(2R)-3-(3-ethyl-4-oxo-spiro[6,8-dihydro-5H-pyrazolo[4,3-c]azepine-7,4′-tetrahydropyran]-1-yl)-2-methyl-propyl] 2-methoxy-4-methyl-benzoate]",< 100 nM
2,"CCc1nn(C[C@@H](C)COC(=O)c2ccc(OC)c(F)c2)c2c1C(=O)NCC1(CCOCC1)C2 [Example 188, [(2R)-3-(3-ethyl-4-oxo-spiro[6,8-dihydro-5H-pyrazolo[4,3-c]azepine-7,4′-tetrahydropyran]-1-yl)-2-methyl-propyl] 3-fluoro-4-methoxy-benzoate]",< 100 nM
3,"CCc1nn(C[C@@H](C)COC(=O)c2ccc(OC)cc2F)c2c1C(=O)NCC1(CCOCC1)C2 [Example 189, [(2R)-3-(3-ethyl-4-oxo-spiro[6,8-dihydro-5H-pyrazolo[4,3-c]azepine-7,4′-tetrahydropyran]-1-yl)-2-methyl-propyl] 2-fluoro-4-methoxy-benzoate]",< 100 nM
4,"CCc1nn(C[C@@H](C)COC(=O)c2cccc(OC)c2F)c2c1C(=O)NCC1(CCOCC1)C2 [Example 190, [(2R)-3-(3-ethyl-4-oxo-spiro[6,8-dihydro-5H-pyrazolo[4,3-c]azepine-7,4′-tetrahydropyran]-1-yl)-2-methyl-propyl] 2-fluoro-3-methoxy-benzoate]",< 100 nM
5,"CCc1nn(C[C@@H](C)COC(=O)c2cc(OC)ccc2F)c2c1C(=O)NCC1(CCOCC1)C2 [Example 191, [(2R)-3-(3-ethyl-4-oxo-spiro[6,8-dihydro-5H-pyrazolo[4,3-c]azepine-7,4′-tetrahydropyran]-1-yl)-2-methyl-propyl] 2-fluoro-5-methoxy-benzoate]",< 100 nM
6,"CCc1nn(C[C@@H](C)COC(=O)c2cccc(F)c2OC)c2c1C(=O)NCC1(CCOCC1)C2 [Example 192, [(2R)-3-(3-ethyl-4-oxo-spiro[6,8-dihydro-5H-pyrazolo[4,3-c]azepine-7,4′-tetrahydropyran]-1-yl)-2-methyl-propyl] 3-fluoro-2-methoxy-benzoate]",< 100 nM
7,"CCc1nn(C[C@@H](C)COC(=O)c2ccc(F)c(OC)c2)c2c1C(=O)NCC1(CCOCC1)C2 [Example 193, [(2R)-3-(3-ethyl-4-oxo-spiro[6,8-dihydro-5H-pyrazolo[4,3-c]azepine-7,4′-tetrahydropyran]-1-yl)-2-methyl-propyl] 4-fluoro-3-methoxy-benzoate]",< 100 nM
8,"CCc1nn(C[C@@H](C)COC(=O)c2c(F)cccc2OC)c2c1C(=O)NCC1(CCOCC1)C2 [Example 194, [(2R)-3-(3-ethyl-4-oxo-spiro[6,8-dihydro-5H-pyrazolo[4,3-c]azepine-7,4′-tetrahydropyran]-1-yl)-2-methyl-propyl] 2-fluoro-6-methoxy-benzoate]",< 100 nM
9,"CCc1nn(C[C@@H](C)COC(=O)c2ccc(F)cc2OC)c2c1C(=O)NCC1(CCOCC1)C2 [Example 195, [(2R)-3-(3-ethyl-4-oxo-spiro[6,8-dihydro-5H-pyrazolo[4,3-c]azepine-7,4′-tetrahydropyran]-1-yl)-2-methyl-propyl] 4-fluoro-2-methoxy-benzoate]",< 100 nM
10,"CCc1nn(C[C@@H](C)COC(=O)c2ccc(Cl)cc2C)c2c1C(=O)NCC1(CCOCC1)C2 [Example 196, [(2R)-3-(3-ethyl-4-oxo-spiro[6,8-dihydro-5H-pyrazolo[4,3-c]azepine-7,4′-tetrahydropyran]-1-yl)-2-methyl-propyl] 4-chloro-2-methyl-benzoate]",< 100 nM
11,"CCc1nn(C[C@@H](C)COC(=O)c2ccc(C(F)F)cc2)c2c1C(=O)NCC1(CCOCC1)C2 [Example 197, [(2R)-3-(3-ethyl-4-oxo-spiro[6,8-dihydro-5H-pyrazolo[4,3-c]azepine-7,4′-tetrahydropyran]-1-yl)-2-methyl-propyl] 4-(difluoromethyl)benzoate]",< 100 nM
12,"CCc1nn(C[C@@H](C)COC(=O)c2cccc(Cl)c2F)c2c1C(=O)NCC1(CCOCC1)C2 [Example 198, [(2R)-3-(3-ethyl-4-oxo-spiro[6,8-dihydro-5H-pyrazolo[4,3-c]azepine-7,4′-tetrahydropyran]-1-yl)-2-methyl-propyl] 3-chloro-2-fluoro-benzoate]",< 100 nM
13,"CCc1nn(C[C@@H](C)COC(=O)c2ccc(Cl)c(F)c2)c2c1C(=O)NCC1(CCOCC1)C2 [Example 199, [(2R)-3-(3-ethyl-4-oxo-spiro[6,8-dihydro-5H-pyrazolo[4,3-c]azepine-7,4′-tetrahydropyran]-1-yl)-2-methyl-propyl] 4-chloro-3-fluoro-benzoate]",< 100 nM
14,"CCc1nn(C[C@@H](C)COC(=O)c2cc(F)ccc2Cl)c2c1C(=O)NCC1(CCOCC1)C2 [Example 200, [(2R)-3-(3-ethyl-4-oxo-spiro[6,8-dihydro-5H-pyrazolo[4,3-c]azepine-7,4′-tetrahydropyran]-1-yl)-2-methyl-propyl] 2-chloro-5-fluoro-benzoate]",< 100 nM
15,"CCc1nn(C[C@@H](C)COC(=O)c2cccc(F)c2Cl)c2c1C(=O)NCC1(CCOCC1)C2 [Example 201, [(2R)-3-(3-ethyl-4-oxo-spiro[6,8-dihydro-5H-pyrazolo[4,3-c]azepine-7,4′-tetrahydropyran]-1-yl)-2-methyl-propyl] 2-chloro-3-fluoro-benzoate]",< 100 nM
16,"CCc1nn(C[C@@H](C)COC(=O)c2cc(Cl)ccc2F)c2c1C(=O)NCC1(CCOCC1)C2 [Example 202, [(2R)-3-(3-ethyl-4-oxo-spiro[6,8-dihydro-5H-pyrazolo[4,3-c]azepine-7,4′-tetrahydropyran]-1-yl)-2-methyl-propyl] 5-chloro-2-fluoro-benzoate]",< 100 nM
17,"CCc1nn(C[C@@H](C)COC(=O)c2c(F)cccc2Cl)c2c1C(=O)NCC1(CCOCC1)C2 [Example 203, [(2R)-3-(3-ethyl-4-oxo-spiro[6,8-dihydro-5H-pyrazolo[4,3-c]azepine-7,4′-tetrahydropyran]-1-yl)-2-methyl-propyl] 2-chloro-6-fluoro-benzoate]",< 100 nM
18,"CCc1nn(C[C@@H](C)COC(=O)c2ccc(F)c(Cl)c2)c2c1C(=O)NCC1(CCOCC1)C2 [Example 204, [(2R)-3-(3-ethyl-4-oxo-spiro[6,8-dihydro-5H-pyrazolo[4,3-c]azepine-7,4′-tetrahydropyran]-1-yl)-2-methyl-propyl] 3-chloro-4-fluoro-benzoate]",< 100 nM
19,"CCc1nn(C[C@@H](C)COC(=O)c2ccc(Cl)cc2F)c2c1C(=O)NCC1(CCOCC1)C2 [Example 205, [(2R)-3-(3-ethyl-4-oxo-spiro[6,8-dihydro-5H-pyrazolo[4,3-c]azepine-7,4′-tetrahydropyran]-1-yl)-2-methyl-propyl] 4-chloro-2-fluoro-benzoate]",< 100 nM
20,"CCc1nn(C[C@@H](C)COC(=O)c2ccc(OC)c(Cl)c2)c2c1C(=O)NCC1(CCOCC1)C2 [Example 206, [(2R)-3-(3-ethyl-4-oxo-spiro[6,8-dihydro-5H-pyrazolo[4,3-c]azepine-7,4′-tetrahydropyran]-1-yl)-2-methyl-propyl] 3-chloro-4-methoxy-benzoate]",< 100 nM
21,"CCc1nn(C[C@@H](C)COC(=O)c2cccc(OC)c2Cl)c2c1C(=O)NCC1(CCOCC1)C2 [Example 207, [(2R)-3-(3-ethyl-4-oxo-spiro[6,8-dihydro-5H-pyrazolo[4,3-c]azepine-7,4′-tetrahydropyran]-1-yl)-2-methyl-propyl] 2-chloro-3-methoxy-benzoate]",< 100 nM
22,"CCc1nn(C[C@@H](C)COC(=O)c2ccc(Cl)c(OC)c2)c2c1C(=O)NCC1(CCOCC1)C2 [Example 208, [(2R)-3-(3-ethyl-4-oxo-spiro[6,8-dihydro-5H-pyrazolo[4,3-c]azepine-7,4′-tetrahydropyran]-1-yl)-2-methyl-propyl] 4-chloro-3-methoxy-benzoate]",< 100 nM
23,"CCc1nn(C[C@@H](C)COC(=O)c2cccc(Cl)c2OC)c2c1C(=O)NCC1(CCOCC1)C2 [Example 209, [(2R)-3-(3-ethyl-4-oxo-spiro[6,8-dihydro-5H-pyrazolo[4,3-c]azepine-7,4′-tetrahydropyran]-1-yl)-2-methyl-propyl] 3-chloro-2-methoxy-benzoate]",< 100 nM
24,"CCc1nn(C[C@@H](C)COC(=O)c2cc(Cl)ccc2OC)c2c1C(=O)NCC1(CCOCC1)C2 [Example 210, [(2R)-3-(3-ethyl-4-oxo-spiro[6,8-dihydro-5H-pyrazolo[4,3-c]azepine-7,4′-tetrahydropyran]-1-yl)-2-methyl-propyl] 5-chloro-2-methoxy-benzoate]",< 100 nM
25,"CCc1nn(C[C@@H](C)COC(=O)c2ccc(Cl)cc2OC)c2c1C(=O)NCC1(CCOCC1)C2 [Example 211, [(2R)-3-(3-ethyl-4-oxo-spiro[6,8-dihydro-5H-pyrazolo[4,3-c]azepine-7,4′-tetrahydropyran]-1-yl)-2-methyl-propyl] 4-chloro-2-methoxy-benzoate]",< 100 nM
26,"CCc1nn(C[C@@H](C)COC(=O)c2ccc(C(F)(F)F)cc2)c2c1C(=O)NCC1(CCOCC1)C2 [Example 212, [(2R)-3-(3-ethyl-4-oxo-spiro[6,8-dihydro-5H-pyrazolo[4,3-c]azepine-7,4′-tetrahydropyran]-1-yl)-2-methyl-propyl] 4-(trifluoromethyl)benzoate]",< 100 nM
27,"CCc1nn(C[C@@H](C)COC(=O)c2cccc(S(C)(=O)=O)c2)c2c1C(=O)NCC1(CCOCC1)C2 [Example 213, [(2R)-3-(3-ethyl-4-oxo-spiro[6,8-dihydro-5H-pyrazolo[4,3-c]azepine-7,4′-tetrahydropyran]-1-yl)-2-methyl-propyl] 3-methylsulfonylbenzoate]",< 100 nM
28,"CCc1nn(C[C@@H](C)COC(=O)c2ccccc2S(C)(=O)=O)c2c1C(=O)NCC1(CCOCC1)C2 [Example 214, [(2R)-3-(3-ethyl-4-oxo-spiro[6,8-dihydro-5H-pyrazolo[4,3-c]azepine-7,4′-tetrahydropyran]-1-yl)-2-methyl-propyl] 2-methylsulfonylbenzoate]",< 100 nM
